Data set [1] deals with T1, RARγ (Homo sapiens, UniProt P13631).
T1 construct: expressed in transfected cells; host or cells: CV-1
Kind of data set: RAR transactivation assay (ER-RAR fusion, ERE-tk-Luc reporter, CV-1 cells). The format is cell-based. The note with it: 20 hours, luciferase activity. From the text: (§1) Data are mean values ± SE from five independent experiments.
T1 sequence (P13631 185-419 limits assumed, species assumed): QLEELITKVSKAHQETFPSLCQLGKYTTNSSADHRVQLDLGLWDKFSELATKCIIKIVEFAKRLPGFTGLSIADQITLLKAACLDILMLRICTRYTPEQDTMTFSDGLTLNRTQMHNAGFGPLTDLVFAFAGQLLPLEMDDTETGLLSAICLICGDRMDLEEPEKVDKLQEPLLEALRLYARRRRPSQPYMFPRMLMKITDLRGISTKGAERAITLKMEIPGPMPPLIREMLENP

Data set [2] deals with T2, RARβ (Homo sapiens, UniProt P10826).
T2 construct: expressed in transfected cells; host or cells: CV-1
The description is as above. The format is cell-based. Particulars: 20 hours, luciferase activity.
From the text: as §1
T2 sequence (P10826 183-417 limits assumed, species assumed): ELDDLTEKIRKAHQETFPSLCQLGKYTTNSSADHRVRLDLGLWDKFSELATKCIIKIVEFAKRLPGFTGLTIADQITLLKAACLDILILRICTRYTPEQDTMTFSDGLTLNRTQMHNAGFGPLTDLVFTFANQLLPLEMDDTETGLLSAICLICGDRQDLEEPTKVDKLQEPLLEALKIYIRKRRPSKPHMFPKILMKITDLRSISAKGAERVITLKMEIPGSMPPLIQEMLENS

The target of data set [3] is T3, RARα (Homo sapiens, UniProt P10276).
T3 construct: made in house; host or cells: SF21 insect cells (baculovirus)
As to the kind of experiment: Competitive displacement of [3H]-ATRA from purified receptor. The note with it: 5 nM [3H]-ATRA; read-out: RAR Binding Affinity Ki (nM) RARα. An excerpt: (§2) Standard errors (±) among independent experiments are indicated.
(Loss of bound radioactivity is the signal in a displacement assay; it reports binding, not function.)

Data set [4] concerns the target RARγ (Homo sapiens, UniProt P13631). Described as above. The note with it: 5 nM [3H]-ATRA; read-out: RAR Binding Affinity Ki (nM) RARγ.
From the text: as §2
Target sequence in this assay (P13631 whole entry, species assumed): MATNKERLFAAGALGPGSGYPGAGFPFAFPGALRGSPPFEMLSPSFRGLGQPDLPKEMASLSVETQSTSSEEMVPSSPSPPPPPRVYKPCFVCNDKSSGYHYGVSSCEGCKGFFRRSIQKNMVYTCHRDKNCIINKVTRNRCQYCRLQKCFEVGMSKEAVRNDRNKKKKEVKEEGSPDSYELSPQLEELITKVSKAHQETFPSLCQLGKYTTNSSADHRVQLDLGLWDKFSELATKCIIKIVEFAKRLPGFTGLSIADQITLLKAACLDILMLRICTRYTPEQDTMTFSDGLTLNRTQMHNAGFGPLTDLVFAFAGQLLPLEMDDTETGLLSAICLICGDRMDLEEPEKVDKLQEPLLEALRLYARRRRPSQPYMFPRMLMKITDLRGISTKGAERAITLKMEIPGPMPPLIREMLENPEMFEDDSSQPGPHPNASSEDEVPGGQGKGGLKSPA

Data set [5] concerns the target T4, RARβ (Homo sapiens, UniProt P10826).
T4 construct: made in house; host or cells: SF21 insect cells (baculovirus)
Described as above. The note with it: 5 nM [3H]-ATRA; read-out: RAR Binding Affinity Ki (nM) RARβ.
From the text: as §2
T4 sequence (P10826 whole entry, species assumed): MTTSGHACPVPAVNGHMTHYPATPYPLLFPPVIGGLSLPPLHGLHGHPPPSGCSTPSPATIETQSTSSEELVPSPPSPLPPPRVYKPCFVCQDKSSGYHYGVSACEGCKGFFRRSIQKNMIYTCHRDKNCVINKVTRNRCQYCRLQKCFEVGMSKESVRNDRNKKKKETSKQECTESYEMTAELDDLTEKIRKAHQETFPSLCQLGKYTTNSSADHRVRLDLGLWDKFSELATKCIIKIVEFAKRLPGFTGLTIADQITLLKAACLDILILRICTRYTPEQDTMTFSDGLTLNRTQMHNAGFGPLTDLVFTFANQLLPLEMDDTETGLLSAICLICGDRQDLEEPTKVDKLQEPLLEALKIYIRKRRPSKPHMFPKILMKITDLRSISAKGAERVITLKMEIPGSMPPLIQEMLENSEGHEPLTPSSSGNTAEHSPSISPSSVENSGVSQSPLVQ

The subject of data set [6] is PPARy/RXR. Kind of data set: Permissive heterodimer transactivation assay, CV-1 cells, 3x(rAOX/DR1)-tk-Luc. Particulars: 20 hr, luciferase vs rosiglitazone. The format is cell-based. An excerpt: For PPARy: CV-1 cells were transfected with 3x(rAOX/DR1)-tk-Luc reporter gene and an expression vector for PPARy. For FXR:CV-1 cells were transfected with 3x(IBABP/IRI)-tk-Luc reporter gene and vectors for FXR and RXRα. For LXR:CV-1 cells were transfected with 3x(PLTP/LXRE)-tk-Luc reporter gene with vectors for LXRα or LXRβ. For Nurr1: COS7 cells were transfected with 3xNBRE-tk-luc reporter gene and full length Nurr-1 with or without full-length RXRα plasmid. […] Luciferase data were normalized to co-transfected β-gal activity. Luciferase activity was expressed as percent of maximal activity obtained using specific agonists. Rosiglitazone (PPARy), GW4064 (FXR), T0901317 (LXR).

The test system of data set [7] is oligodendrocyte differentiation and remyelination. As to the kind of experiment: In vitro measures of oligodendrocyte differentiation and remyelination. The format is cell-based.
Data set [8] is described as follows: Cmax after oral doses of IRX4204. The note with it: in vivo, 24 mg/m2; oral doses of 24 mg/m^2/day.
In data set [9] the test system is breast cancer cells. Kind of data set: Proliferation of breast cancer cells in vitro. The format is cell-based.

T3 sequence (P10276 whole entry, species assumed): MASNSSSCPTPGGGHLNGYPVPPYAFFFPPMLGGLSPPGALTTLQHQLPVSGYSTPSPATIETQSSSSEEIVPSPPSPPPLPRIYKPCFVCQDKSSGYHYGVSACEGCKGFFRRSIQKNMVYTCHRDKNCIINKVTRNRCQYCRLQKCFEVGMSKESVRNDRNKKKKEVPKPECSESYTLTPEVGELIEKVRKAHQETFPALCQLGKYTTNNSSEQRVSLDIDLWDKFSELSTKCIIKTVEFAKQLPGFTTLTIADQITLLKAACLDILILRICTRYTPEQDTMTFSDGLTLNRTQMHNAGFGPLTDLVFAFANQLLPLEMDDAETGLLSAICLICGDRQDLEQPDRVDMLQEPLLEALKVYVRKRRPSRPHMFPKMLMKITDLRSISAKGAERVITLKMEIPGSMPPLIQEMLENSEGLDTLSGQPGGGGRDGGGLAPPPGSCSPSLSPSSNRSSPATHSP

Usually EC50 stands for the concentration that produces a half-maximal response. Read a low EC50 as a more potent agent. Usually Ki stands for the dissociation constant of the complex between target and ligand, obtained from inhibition or displacement. In the case of `CCOC(=O)/C=C(C)/C=C/[C@@H]1C[C@]1(C)c1ccc2c(c1)C(C)(C)CCC2(C)C` [IRX4204EE, 3,7-dimethyl-6(S),7(S)-methano,7-[1,1,4,4-tetramethyl-1,2,3,4-tetrahydronaphth-7-yl]2(E),4(E) heptadienoic ethyl ester], the concentration for a half-maximal effect (EC50) in [1] and in data set [2] was more than 1000 nM each time. Besides, the Ki in [3], in data set [4] and in [5] was more than 1000 nM throughout. The “activation of PPARy/RXR heterodimer” value in data set [6] is given as “very little activity”.
The term Cmax denotes the peak of the concentration-time curve. For `CC(/C=C/[C@@H]1C[C@]1(C)c1ccc2c(c1)C(C)(C)CCC2(C)C)=C\C(=O)O` [IRX4204, 3,7-dimethyl-6(S),7(S)-methano,7-[1,1,4,4-tetramethyl-1,2,3,4-tetrahydronaphth-7-yl]2(E),4(E) heptadienoic acid], the “concentration with marginal activity detected” value in data set [7] turned out to be 1 pM. Besides, in data set [8], the Cmax stood at 219 nM. Besides, the “inhibition of proliferation of breast cancer cells” value in [9] (10 nM) is recorded as “observably inhibit the proliferation”; in data set [9] (100 nM) it was “substantial improvement in effectiveness”.
